The compounds below were run against T1, methioninase (Fusobacterium nucleatum subsp. nucleatum, UniProt Q8RDT4) (assay: Cell-free methioninase inhibition test (α-ketobutyrate production from methionine)). Conditions: cell-free enzyme from sonicated bacteria; read-out: IC50 against methioninase (converted).
T1 construct: disrupted by sonication to obtain the enzyme; endogenous in cells; host or cells: Fusobacterium nucleatum JCM 8532, sonicated cell lysate (unpurified)
T1 sequence (Q8RDT4 1-395): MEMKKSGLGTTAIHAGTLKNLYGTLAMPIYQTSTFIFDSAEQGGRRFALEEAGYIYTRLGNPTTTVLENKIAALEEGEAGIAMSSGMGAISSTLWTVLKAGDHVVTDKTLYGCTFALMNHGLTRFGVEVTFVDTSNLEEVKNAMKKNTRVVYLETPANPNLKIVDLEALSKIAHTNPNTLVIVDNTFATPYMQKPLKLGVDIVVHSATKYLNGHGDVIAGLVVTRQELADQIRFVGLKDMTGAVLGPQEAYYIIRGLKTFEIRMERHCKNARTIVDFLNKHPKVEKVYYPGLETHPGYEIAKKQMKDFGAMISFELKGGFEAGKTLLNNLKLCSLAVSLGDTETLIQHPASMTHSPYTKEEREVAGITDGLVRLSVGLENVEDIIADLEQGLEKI
Type: biochemical
In the case of CC(C)=CCC/C(C)=C/Cc1cc(C(=O)O)cc(CC=C(C)C)c1O [Myrsinoic acid A, myrsinoic acid A], the IC50 is reported as 14.6 µM.
CC(C)=CCCC(C)(O)C1Cc2cc(C(=O)O)cc(CC=C(C)C)c2O1 (stereo not drawn) [Myrsinoic acid B, myrsinoic acid B] gave an IC50 of 11.2 µM.
In the case of CC(C)=CCC[C@]1(C)Oc2c(CC=C(C)C)cc(C(=O)O)cc2C[C@@H]1O [Myrsinoic acid C, myrsinoic acid C], the IC50 is reported as 13.9 µM.
CC(C)=CCC/C(C)=C/Cc1cc(C(=O)O)cc(C/C=C(\C)CCC=C(C)C)c1O [Myrsinoic acid E (Synthesized), Myrsinoic acid E] showed an IC50 of 12.2 µM.
With CC(C)=CCC/C(C)=C/Cc1cc(C(=O)O)cc(C/C=C(\C)CCC=C(C)C)c1O [Myrsinoic acid E, myrsinoic acid E] the IC50 was 12.2 µM.
With CC(C)=CC/C=C(\C)C1Cc2cc(C(=O)O)cc(CC=C(C)C)c2O1 (stereo not drawn) [Myrsinoic acid F, myrsinoic acid F] the IC50 was 8.81 µM.

Source: patent US9144539B2, “Methioninase inhibitor and composition and food or drink containing the same” (Lotte Co., Ltd., priority 2006, dated 2015)
